Where two headings read alike, the source gives them in different places.
Tests used:
dairy cattle [1] = test: Tolerability limits: intake limits of minerals for dairy cattle; assay type: in vivo
dairy cattle [2] = settings: cited from earlier work
dairy cattle [3] = test: Methane intensity versus normalized bromoform intake (Asparagopsis quantity calculation); assay type: in vivo; settings: regression constant
Protocol: In still another embodiment, a regression constant is determined. The regression constant relates the amount of bromoform required to achieve a set percentage of methane reduction per amount of neutral detergent fiber present in the animal's diet. Thus, the algorithm comprises the steps of: i) Determining the target methane reduction percentage and subsequently the target absolute reduction (g CH4/kg milk); ii) Determining cow's NDF intake, based on dry matter intake (DMI) and NDF proportion; iii) Determining the normalized bromoform concentration required (equivalent to the desired absolute reduction divided by the regression constant, where the regression constant is the Reduction in methane intensity (g CH4/kg milk) per unit normalized bromoform intake (mg/kg of NDF); iv) Multiplying by the NDF intake to determine the required bromoform concentration (mg) and v) Dividing by the bromoform concentration in that seaweed to determine amount of seaweed required.

[4] = In vivo fate of bromoform delivered from red macroalgae feed supplement; set-up: species or system livestock
livestock rumens = test: Rumen propionate:acetate ratio and meat trans fat in livestock fed red algae; settings: in vitro and in vivo testing
Description: It is known that bromoform is safely and usefully degraded in anaerobic environments like livestock rumens where the enzyme methyl-coenzyme M reductase is present.

[5] = dairy cattle, at the maximum allowable limit

For [Al] [Aluminum], the “Intake for a Cow Consuming 20.14 kg DM/day” value (dairy cattle [1]; bovine, in vivo) is given as 20140 mg/day and the “Maximum Allowable Component Intake Limit per Daily kg of DM Consumption” value (dairy cattle [2]; bovine, in vivo) is given as 1000 mg/kg DMI.
For [B] [Boron], the “Intake for a Cow Consuming 20.14 kg DM/day” value (dairy cattle [1]; bovine, in vivo) is given as 3021 mg/day and the “Maximum Allowable Component Intake Limit per Daily kg of DM Consumption” value (dairy cattle [2]; bovine, in vivo) is given as 150 mg/kg DMI.
In the case of [Cd] [Cadmium], the “Intake for a Cow Consuming 20.14 kg DM/day” value (dairy cattle [1]; [5]) is listed as 201 mg/day and the “Maximum Allowable Component Intake Limit per Daily kg of DM Consumption” value (dairy cattle [2]; dairy cattle) is listed as 10 mg/kg DMI.
For [Ca+2] [Calcium], the “Intake for a Cow Consuming 20.14 kg DM/day” value (dairy cattle [1]; [5]) is listed as 302100 mg/day and the “Maximum Allowable Component Intake Limit per Daily kg of DM Consumption” value (dairy cattle [2]; dairy cattle) is listed as 15000 mg/kg DMI.
For [Cr] [Chromium], the “Intake for a Cow Consuming 20.14 kg DM/day” value (dairy cattle [1]; [5]) is listed as 2014 mg/day and the “Maximum Allowable Component Intake Limit per Daily kg of DM Consumption” value (dairy cattle [2]; dairy cattle) is listed as 100 mg/kg DMI.
For [Co] [Cobalt], the “Intake for a Cow Consuming 20.14 kg DM/day” value (dairy cattle [1]; [5]) is given as 504 mg/day and the “Maximum Allowable Component Intake Limit per Daily kg of DM Consumption” value (dairy cattle [2]; dairy cattle) is given as 25 mg/kg DMI.
For [Fe] [Iron], the “Intake for a Cow Consuming 20.14 kg DM/day” value (dairy cattle [1]; bovine, in vivo) is given as 10070 mg/day and the “Maximum Allowable Component Intake Limit per Daily kg of DM Consumption” value (dairy cattle [2]; bovine, in vivo) is given as 500 mg/kg DMI.
For [Pb] [Lead], the “Intake for a Cow Consuming 20.14 kg DM/day” value (dairy cattle [1]; [5]) is given as 2014 mg/day and the “Maximum Allowable Component Intake Limit per Daily kg of DM Consumption” value (dairy cattle [2]; dairy cattle) is given as 100 mg/kg DMI.
In the case of [Mg+2] [Magnesium], the “Intake for a Cow Consuming 20.14 kg DM/day” value (dairy cattle [1]; bovine, in vivo) is given as 120840 mg/day and the “Maximum Allowable Component Intake Limit per Daily kg of DM Consumption” value (dairy cattle [2]; dairy cattle) is given as 6000 mg/kg DMI.
For [Mn+2] [Manganese], the “Intake for a Cow Consuming 20.14 kg DM/day” value (dairy cattle [1]; [5]) is listed as 40280 mg/day and the “Maximum Allowable Component Intake Limit per Daily kg of DM Consumption” value (dairy cattle [2]; dairy cattle) is listed as 2000 mg/kg DMI.
In the case of [Mo] [Molybdenum], the “Intake for a Cow Consuming 20.14 kg DM/day” value (dairy cattle [1]; bovine, in vivo) is listed as 101 mg/day and the “Maximum Allowable Component Intake Limit per Daily kg of DM Consumption” value (dairy cattle [2]; bovine, in vivo) is listed as 5 mg/kg DMI.
In the case of [K+] [Potassium], the “Intake for a Cow Consuming 20.14 kg DM/day” value (dairy cattle [1]; bovine, in vivo) is given as 402800 mg/day and the “Maximum Allowable Component Intake Limit per Daily kg of DM Consumption” value (dairy cattle [2]; bovine, in vivo) is given as 20000 mg/kg DMI.
For [Se] [Selenium], the “Intake for a Cow Consuming 20.14 kg DM/day” value (dairy cattle [1]; [5]) is given as 101 mg/day and the “Maximum Allowable Component Intake Limit per Daily kg of DM Consumption” value (dairy cattle [2]; bovine, in vivo) is given as 5 mg/kg DMI.
For S1SSSSSSS1 [Sulfur], the “Intake for a Cow Consuming 20.14 kg DM/day” value (dairy cattle [1]; [5]) is listed as 60420 mg/day and the “Maximum Allowable Component Intake Limit per Daily kg of DM Consumption” value (dairy cattle [2]; dairy cattle) is listed as 3000 mg/kg DMI.
In the case of [Zn] [Zinc], the “Intake for a Cow Consuming 20.14 kg DM/day” value (dairy cattle [1]; [5]) is given as 10070 mg/day and the “Maximum Allowable Component Intake Limit per Daily kg of DM Consumption” value (dairy cattle [2]; dairy cattle) is given as 500 mg/kg DMI.
With BrC(Br)Br [bromoform] the “Slope-Reduction in methane intensity (g CH4/kg milk) per normalized unit bromoform intake (mg/kg of NDF)” value (dairy cattle [3]) was −0.049 g CH4/kg milk per mg/kg of NDF, the “absorption of bromoform into rumen wall or other organs” value [4] was “not absorbed into the rumen wall, or other organs” and the “bromoform in milk, meat or manure” value [4] was “not found”. The “propionate:acetate ratios in livestock rumens” value (livestock rumens) was “increases the propionate:acetate ratios”.
In the case of Arsenic, the “Intake for a Cow Consuming 20.14 kg DM/day” value (dairy cattle [1]; [5]) is given as 604 mg/day and the “Maximum Allowable Component Intake Limit per Daily kg of DM Consumption” value (dairy cattle [2]; dairy cattle) is given as 30 mg/kg DMI.
In the case of Copper, the “Intake for a Cow Consuming 20.14 kg DM/day” value (dairy cattle [1]; bovine, in vivo) is listed as 806 mg/day and the “Maximum Allowable Component Intake Limit per Daily kg of DM Consumption” value (dairy cattle [2]; bovine, in vivo) is listed as 40 mg/kg DMI.
For Phosphorous, the “Intake for a Cow Consuming 20.14 kg DM/day” value (dairy cattle [1]; bovine, in vivo) is given as 140980 mg/day and the “Maximum Allowable Component Intake Limit per Daily kg of DM Consumption” value (dairy cattle [2]; bovine, in vivo) is given as 7000 mg/kg DMI.
For Sodium, the “Intake for a Cow Consuming 20.14 kg DM/day” value (dairy cattle [1]; [5]) is listed as 1706704 mg/day and the “Maximum Allowable Component Intake Limit per Daily kg of DM Consumption” value (dairy cattle [2]; dairy cattle) is listed as 84742 mg/kg DMI.

From US12667118B2, “Compositions comprising algae and methods of using same for increasing animal product production” (BLUE OCEAN BARNS, priority 2020, dated 2026)
